We go through 4 compounds from patent US20250161337A1, “IMMUNOSUPPRESSIVE COMPOSITION CONTAINING L-AHG” (Kyungpook National University Industry-Academic Cooperation …, priority 2022, published 2025).

Holding throughout (type): cell-based, mouse
In data set [1] the test system is T cells activated with immobilized anti-CD3/anti-CD28. In words: [3H]-thymidine incorporation (proliferation) of G0 T cells activated with immobilized anti-CD3/anti-CD28. The settings on record: for effect on [3H]thymidine incorporation of activated T cells: 25 to 400 μg/mL. The protocol: (§1) Isolation of resting (G0) T lymphocytes from spleens from 4-5-month-old C57BL/6J male mice was performed by a negative selection method from splenocytes using a T cell purification column kit (R&D Systems, Minneapolis, Minn., USA). At this time, the activation of G0 T cells was performed using a modification of the method of Kim et al., wherein pretreatment with rabbit anti-hamster IgG antibody (20 μg/mL) was performed so that the surface of the culture plastic container was smoothly coated with anti-CD3 (2.0 μg/mL) and anti-CD28 (2.0 μg/mL).
To evaluate the proliferation of T cells activated by immobilized anti-CD3/anti-CD28, 1×10^5 G0 T cells and each concentration of L-AHG together with 200 μL of RPMI 1640 complete medium were added to each well of a 96-well plate coated with anti-CD3 (2.0 μg/mL) and anti-CD28 (2.0 μg/mL), and activation of the cells was initiated by culture. At 29 hours after the activation, 0.25 μCi of [^3H]-thymidine was added to each well, and the amount of [^3H]-thymidine incorporated into the DNA of proliferating T cells was quantified by a liquid scintillation counter while the cells were further cultured for 12 hours.
First, using a 96-well plate, resting T cells (1×10^5 G0 T cells/well) were stimulated and activated with immobilized anti-CD3/anti-CD28 in the presence of various concentrations (0, 12.5, 25, 50, 100, 200, and 400 μg/mL) of L-AHG, NA2, NA4, or NA6. At 29 hours after the activation, 0.25 μCi of [^3H]thymidine was added to each well, followed by further culturing for an additional 12 hours. The amount of [^3H]thymidine incorporated into DNA following the T cell proliferation that occurred during this additional culturing time was quantified with a liquid scintillation counter, thereby determining the degree of T cell proliferation that occurred in each well.

Data set [2] has as its system CD8 T cells. In words: First cell cycle progression of activated resting CD8 T cells, nocodazole arrest, DAPI flow cytometry. How it is done: as §1
(§2) To analyze the cell cycle of T cells activated by immobilized anti-CD3/anti-CD28 or to analyze the cytokine concentration in the culture supernatant, 3×10^6 G0 T cells and each concentration of L-AHG together with 2 mL of RPMI 1640 complete medium were added to each well of a 35-mm plate coated with anti-CD3 (2.0 μg/mL) and anti-CD28 (2.0 μg/mL), and activation of the cells was initiated by culture. At 30 hours after the activation, the culture was stopped and the cells and the culture supernatant were recovered by centrifugation.
(§3) Under the same culture conditions, in order for the first cell cycle progression initiated by the activation of G0 T cells to be arrested in prometaphase by nocodazole treatment, T lymphocytes were activated for 20 hours, and then nocodazole was added thereto at a concentration of 0.2 μg/mL, followed by followed by further culturing for an additional 10 hours. After completion of the culturing, the culture was centrifuged to recover the cells and the culture supernatant.
(§4) Resting (G0) T cells isolated from mouse splenocytes using a T cell purification column kit (R & D) and T cells obtained by activating G0 T cells with immobilized anti-CD3/anti-CD28 for a given period of time were subjected to anti-CD3, anti-CD4, anti-CD8, and DAPI staining.
(§5) About 5×10^5 cells were suspended in 100 μL of 1×PBS/1% FBS solution, and then 0.5 μg of anti-CD3, 0.5 μg of anti-CD4, and 0.5 μg of anti-CD8 were added thereto and allowed to react at 4° C. for 15 minutes, followed by washing twice with 1×PBS/1% FBS solution. Subsequently, the cells were fixed with 1% paraformaldehyde solution at 4° C. for 15 minutes, and the fixed cells were washed twice with 1×PBS solution and then stained with 10 μM DAPI for 15 minutes. The stained cells were analyzed with an Attune NxT flow cytometer (Thermo Fisher Scientific, Waltham, MA, USA) to determine the proportions of CD3 T cells, CD4 T cells, and CD8 T cells and the cell cycle distribution based on the increase in blue fluorescence depending on the amount of DAPI bound to intracellular DNA.
To this end, resting T cells were stimulated and activated with immobilized anti-CD3/anti-CD28, and when these cells reached the time point at which S phase started following G0 exit and G1 entry and progression, that is, when 20 hours have elapsed after the activation, the microtubule depolymerization agent nocodazole (a cell cycle-arresting agent that arrests cell cycle progression of eukaryotic cells at the prometaphase of M phase) was added to the cells, followed by further culturing for 10 hours. […] Then, these cells were recovered, treated and stained with fluorescently labeled anti-CD4 antibody, fluorescently labeled anti-CD8 antibody, and the DNA fluorescent staining reagent DAPI, and analyzed with a flow cytometer. […]

Data set [3] concerns IL-13. In words: IL-13 in culture supernatant of activated T cells, ELISA. The settings on record: 25, 50, and 100 μg/mL; 30 h after activation. The protocol: as §2
(§6) After recovering the culture supernatant of T cells, the concentrations of IFN-γ, IL-2, IL-4 and IL-13 therein were analyzed using an ELISA kit (Mouse Uncoated Elisa Kit, Invitrogen) according to the manufacturer's instructions. […] The reaction was terminated by adding 100 μl of a reaction stop solution to each well, and the absorbances at wavelengths of 450 nm and 570 nm were measured with a Varioskan Lux Multimode Microplate Reader (Thermo Fisher Scientific). At this time, the value obtained by subtracting the absorbance measured at a wavelength of 570 nm from the absorbance measured at a wavelength of 450 nm was compared with a standard curve to determine the concentrations of cytokines present in the culture supernatant. […]

Data set [4] deals with IFN-γ. In words: IFN-γ in culture supernatant of activated T cells, ELISA. The settings on record: 30 h after activation. How it is done:
as §2, §6
Background: An ELISA detects its analyte on a solid surface through an enzyme-linked reagent.

The test system of data set [5] is CD4 T cells. In words: First cell cycle progression of activated resting CD4 T cells, nocodazole arrest, DAPI flow cytometry. The protocol: as §1, §2, §3, §4, §5
To this end, resting T cells were stimulated and activated with immobilized anti-CD3/anti-CD28, and when these cells reached the time point at which S phase started following G0 exit and G1 entry and progression, that is, when 20 hours have elapsed after the activation, the microtubule depolymerization agent nocodazole (a cell cycle-arresting agent that arrests cell cycle progression of eukaryotic cells at the prometaphase of M phase) was added to the cells, followed by further culturing for 10 hours. Through this unique experimental method, the first cell cycle initiated following the activation of resting T cells was allowed to progress through the G1, S, and G2 phases, and then arrest in the prometaphase of M phase due to microtubule damage caused by the effect of nocodazole. Then, these cells were recovered, treated and stained with fluorescently labeled anti-CD4 antibody, fluorescently labeled anti-CD8 antibody, and the DNA fluorescent staining reagent DAPI, and analyzed with a flow cytometer. As a result, the present inventors investigated how the aspect of the first cell cycle progression (G1, S, and G2/M phases), which is initiated following the activation of resting CD4 T cells and resting CD8 T cells, is affected by L-AHG.
(In general: Flow cytometry measures light scatter and fluorescence of single cells or particles in a stream.)

Data set [6] deals with IL-4. In words: IL-4 in culture supernatant of activated T cells, ELISA. The settings on record: 30 h after activation. The protocol:
as §2, §6

The test system of data set [7] is IL-2. In words: IL-2 in culture supernatant of activated T cells, ELISA. The settings on record: 25, 50, and 100 μg/mL; 30 h after activation. How it is done: as §2, §6
The mark [8] stands for this setting: 100 μg/mL, 30 h after activation, nocodazole from 20 h.

SMILES strings stand for the structures.

As to `OC[C@H]1OC(O)[C@H](O)[C@@H](O[C@@H]2O[C@H]3CO[C@@H]([C@@H]2O)[C@@H]3O)[C@H]1O` (stereo partly drawn) [NA2, neoagarobiose, reference compound], in data set [1], the “effect on [3H]thymidine incorporation of activated T cells” value (shortened to “effect on [3H]thymidine incorporation”) is “no significant effect”.
In the case of `O=C[C@@H](O)[C@@H]1OC[C@H](O)[C@H]1O` [L-AHG, 3,6-anhydro-L-galactose], in data set [2] (setting [8]), the “change in the percentage of G1-phase CD8 T cells” value was “negligible”, the “percentage of G2/M CD8 T cells” value stood at 41.8% and the “percentage of S-phase CD8 T cells” value was determined as 46.6%. Moreover, the “apoptotic cell death (proportion of apoptotic sub-G1 cells) in CD8 T cells” value in data set [2] (25-100 μg/mL) is “not induced”. The “cell cycle progression after activation of resting CD8 T cells” value in data set [2] (25 to 50 μg/mL, nocodazole from 20 h) is “hardly affected”. Besides, the “IL-13 concentration in culture supernatant” value in data set [3] was “significantly decreased”. The “IFN-γ concentration in culture supernatant” value in data set [4] (25 μg/mL) is listed as “hardly affected”. The “IFN-γ concentration in culture supernatant” value in data set [4] (25, 50, and 100 μg/mL) was “significantly decreased”. Also, in data set [5] (setting [8]), the “percentage of G1-phase CD4 T cells” value amounted to 35.4%, the “percentage of G2/M phase CD4 T cells” value is recorded as 8.8% and the “percentage of S-phase CD4 T cells” value was found to be 54.6%. The “percentage of CD4 T cells remaining in the G1+S phase without entering G2/M” value in data set [5] (100 μg/ml, 30 h after activation, nocodazole from 20 h) is reported as “about 90.0%”. Also, in data set [5] (25-100 μg/mL), the “apoptotic cell death (proportion of apoptotic sub-G1 cells) in CD4 T cells” value is given as “not induced”. In data set [5] (25 to 100 μg/ml, nocodazole from 20 h), the “percentage of CD4 T cells remaining in G1 and S phases without entering G2/M” value was “increased in a manner dependent on the concentration”. Moreover, in data set [6] (25 μg/mL), the “IL-4 concentration relative to untreated control group” value turned out to be 38.5%. Further, the “IL-4 concentration in culture supernatant” value in data set [6] (25, 50, and 100 μg/mL) is reported as “significantly decreased”. In addition, the “IL-2 concentration in culture supernatant” value in data set [7] is “significantly decreased”. In addition, the “effect on the proliferation of activated T cells ([3H]thymidine incorporation)” value in data set [1] (12.5 μg/ml, [3H]thymidine added 29 h after activation, 12 h further culture) is “no significant effect”. Moreover, the “[3H]thymidine incorporation relative to untreated control group” value in data set [1] (100 μg/mL) was “about 22%”. Further, the “effect on [3H]thymidine incorporation” value in data set [1] is “inhibited [^3H]thymidine incorporation in a concentration-dependent manner”. Moreover, the “[3H]thymidine incorporation” value in data set [1] (200 to 400 μg/mL) is recorded as “significantly decreased to an unmeasurable level”.
Take `OC[C@H]1O[C@@H](O)[C@H](O)[C@@H](O[C@@H]2O[C@H]3CO[C@@H]([C@@H]2O)[C@@H]3O[C@@H]2O[C@H](CO)[C@H](O)[C@H](O[C@@H]3O[C@H]4CO[C@@H]([C@@H]3O)[C@@H]4O)[C@H]2O)[C@H]1O` [NA4, neoagarotetraose, reference compound]: in data set [1], the “effect on [3H]thymidine incorporation” value was “no significant effect”.
On to `OC[C@H]1O[C@@H](O)[C@H](O)[C@@H](O[C@@H]2O[C@H]3CO[C@@H]([C@@H]2O)[C@@H]3O[C@@H]2O[C@H](CO)[C@H](O)[C@H](O[C@@H]3O[C@H]4CO[C@@H]([C@@H]3O)[C@@H]4O[C@@H]3O[C@H](CO)[C@H](O)[C@H](O[C@@H]4O[C@H]5CO[C@@H]([C@@H]4O)[C@@H]5O)[C@H]3O)[C@H]2O)[C@H]1O` [NA6, neoagarohexaose, reference compound], for which, in data set [1], the “effect on [3H]thymidine incorporation” value is recorded as “no significant effect”.
